Patent publication US5175290A, “8-(oxo-substituted cycloalkyl)xanthines” (Marion Merrell Dow Inc., priority 1988, dated 1992)
Like-named read-outs stand apart in the source and are kept apart here.

Assays:
[1] = tested on: histamine-induced bronchoconstriction; assay: Reversal of histamine-induced bronchoconstriction in the anesthetized guinea pig; format: in vivo; details: guinea pigs; for ED50: Cavia porcellus, iv, dose required to reverse the histamine response by 50%; for maximum effect (maximum percent reversal of histamine-induced bronchoconstriction): i.v.
Method: Reversal of histamine-induced bronchoconstriction in the anesthetized guinea pig
A modification of the general method of H. Konzett and R. Rossler [Naunyn-Schmiedeberg's Arch. Pharmakol.
Male Duncan-Hartley guinea pigs (400-600) were anesthetized using an intratraperitoneal injection of urethane (1.5 g/kg). After the neck area was shaved, the animal was placed in the dorsal recumbent position on a Narco temperature controlled surgical board (37° C.) to maintain body temperature. Following a midline neck incision, the carotid artery and jugular vein were cannulated using PE50 polyethylene tubing. Both catheters were flushed with heparinized saline (20 U/mL) to prevent clotting. The trachea was then cannulated using a 15 gauge Leuer stub and was connected to a Harvard Apparatus small animal respirator. The animal was ventilated at a constant rate and volume (52 breaths/minute and 1 mL room air/[…] body weight). Airway pressure was measured using a Statham pressure transducer connected to the side port of the tracheal cannula. The arterial blood pressure was measured using a Statham pressure transducer connected to the carotid artery. Both transducers were connected to a Gould chart recorder to produce the desired physiographs.
After allowing the animal to stabilize for 10 minutes, aerosolized histamine (0.01%) was delivered to the airways using a DeVilbiss ultrasonic nebulizer connected in-line between the respirator and the guinea pig. After the maximum bronchoconstriction was reached, as evidenced by a maximum plateau in airway pressure, an injection of vehicle (0.6 mL) was administered via the jugular vein. […] At the end of the experiment, terbutaline sulfate (1 mg/mL), a beta agonist, was injected i.v. to determine if further bronchodilation could be achieved The nebulizer was then turned off and the minimum airway pressure was recorded to determine the final baseline pressure.
ED50 (mg/kg) values and maximum effect (%) were calculated using SAS and PROBIT computer analyses. […] The maximum effect is the maximum percent reversal of histamine-induced bronchoconstriction produced by the test compound.

[2] = tested on: basal heart rate and basal blood pressure; assay: Cardiovascular effects (basal heart rate and basal blood pressure) in guinea pigs; format: in vivo, guinea pig; details: i.v., at 2 × histamine-reversal ED50, * = not significant
Method: Cardiovascular effects (basal heart rate and basal blood pressure) in guinea pigs
Male guinea pigs were anesthetized with urethane and the carotid artery and jugular vein were cannulated. Aortic blood pressure was recorded from a pressure transducer and the signal was integrated to give a heart rate signal.
Each animal received a single intravenous injection of one compound. The dose of each compound was based upon the ED50 value from the reversal of histamine-induced bronchoconstriction in the anesthetized guinea pig. Thus the various compounds were studied at equipotent bronchodilator doses (2×ED50). A group of control animals received injections of vehicle only. Changes in heart rate and blood pressure from pre-injection baseline values produced by drugs or vehicle were compared.

[3] = tested on: pentobarbital-induced heart failure; assay: Pentobarbital-induced heart failure in rats; format: in vivo, rat (Sprague-Dawley); details: for ED40: Rattus norvegicus, iv; for heart rate, maximum recovery dose: bracketed value under RD40 heart rate
Method: Adult male Sprague-Dawley rats (350-450 g) were used in this example. Animals were anesthetized using sodium pentobarbital (40-50 mg/kg, i.p.) and placed supine on a heated (37° C.) surgical table. A 7F pressure tipped catheter (Millar) was inserted into the left carotid artery and advanced into the left ventricle of the heart to measure left ventricular pressure (LVP), dP/dt and heart rate (HR). Mean arterial blood pressure (MABP) was monitored via a PE-50 catheter placed into a femoral artery. The right jugular vein and a femoral vein were catheterized with PE-10 tubing for infusion of the test compounds and pentobarbital, respectively.
Following bilateral cervical vagotomy, a 15 gauge blunt needle was inserted into the trachea via a midcervical tracheostomy to ventilate the animals (60/minute, TV=2.3 mL) Each animal was allowed a 5-10 minute period to stabilize and control measurements were recorded. A dose of 60-70 mg/kg of pentobarbital wa then administered slowly over a 5 minute period via the femoral vein until MABP was stabilized at 60 mm Hg, at which time an infusion of 0.2 mg/kg/minute of pentobarbital was begun and continued throughout the experiment. Each animal was then allowed 10-15 minutes to stabilize and values representing heart failure were recorded. Control and test compounds were tested in a cumulative-dose manner using at least four doses. Dose-related effects, e.g., dP/dt and MABP were continually monitored during a 15 minute recovery period between each dose. At the time of the peak dP/dt response during each recovery period, values for all four variables were recorded. The animals were sacrificed using a lethal injection of pentobarbital 15 minutes following the last dose of the test compound. Only one compound was administered to each animal.
The RD40 is defined as the dose of compound required to achieve a 40% recovery in the variable (dP/dt, MABP) being measured. It was calculated for each compound using an SAS® probit analysis on a Vax computer. Briefly, the program transforms the dose into log 10 and calculates the line of least squares using the mean value for recovery at each dose. In most instances the RD40 was then extrapolated, but in those instances where a full dose-response curve was not achieved because of the limited solubility of the compound, the RD40 was estimated.

[4] = tested on: responses to adenosine; details: all tissues studied, except rat hippocampus; cited from earlier work
[5] = cited from earlier work
[6] = bronchial asthma; cited from earlier work
[7] = tested on: A1 and A2 adenosine receptors; details: A1 versus A2; cited from earlier work
[8] = rats, i.v., dose for 40% recovery in dP/dt, extrapolated or estimated by probit, read-out: RD40, dP/dt
[9] = rats, i.v., extrapolated or estimated by probit, read-out: RD40, heart rate

SMILES: CCCn1c(=O)c2[nH]c(C3CCC(O)C3)nc2n(CCC)c1=O (mixture of isomers) [cis/trans]
- ED50 [1]: 20.3 ± 4.6 mg/kg
- maximum effect (maximum percent reversal of histamine-induced bronchoconstriction) [1]: 64.0 ± 4.8%
- Basal blood pressure [2]: 65 ± 3%
- Basal heart rate [2]: 86 ± 4%
- ED40 [3, 8]: 19 mg/kg
- ED40 [3, 9]: 20 mg/kg
- dP/dt, maximum recovery ([3]; rats, i.v.): 30%
- heart rate, maximum recovery dose ([3]; rats, i.v.): 30 mg/kg

SMILES: CCCn1c(=O)c2[nH]c([C@H]3CC[C@@H](O)C3)nc2n(CCC)c1=O (relative stereo) [cis, cis-8-(3-hydroxycyclopentyl)-1,3-dipropylxanthine]
- ED50 [1]: 14.1 ± 3.6 mg/kg
- maximum effect (maximum percent reversal of histamine-induced bronchoconstriction) [1]: 72.8 ± 6.8%
- Basal blood pressure [2]: 90 ± 5%
- Basal heart rate [2]: 106 ± 3%
- ED40 [3, 8]: 17.7 mg/kg
- ED40 [3, 9]: 120 mg/kg
- dP/dt, maximum recovery ([3]; rats, i.v.): 53%
- heart rate, maximum recovery dose ([3]; rats, i.v.): 20 mg/kg

SMILES: CCCn1c(=O)c2[nH]c([C@H]3CC[C@H](O)C3)nc2n(CCC)c1=O (relative stereo) [trans, trans-8-(3-hydroxycyclopentyl)-1,3-dipropylxanthine]
- ED50 [1]: 11.6 ± 1.6 mg/kg
- maximum effect (maximum percent reversal of histamine-induced bronchoconstriction) [1]: 78.5 ± 4.0%
- Basal blood pressure [2]: 96 ± 8%
- Basal heart rate [2]: 107 ± 5%
- ED40 [3, 8]: 7.8 mg/kg
- ED40 [3, 9]: 3.1 mg/kg
- dP/dt, maximum recovery ([3]; rats, i.v.): 71%
- heart rate, maximum recovery dose ([3]; rats, i.v.): 120 mg/kg

SMILES: Nc1cc(-c2ccncc2)c[nH]c1=O [Amrinone]
- ED40 [3, 8]: 4.12 mg/kg
- ED40 [3, 9]: 77 mg/kg
- dP/dt, maximum recovery ([3]; rats, i.v.): 63%
- heart rate, maximum recovery dose ([3]; rats, i.v.): 10 mg/kg

SMILES: CCCn1c(=O)[nH]c(=O)c2[nH]cnc21 [Enprofylline, 3-propylxanthine]
- ED50 [1]: 13.1 ± 3.1 mg/kg
- maximum effect (maximum percent reversal of histamine-induced bronchoconstriction) [1]: 84.8 ± 3.6%
- effectiveness in diminishing responses to adenosine [4]: much less effective than theophylline
- Basal blood pressure [2]: 76 ± 10%
- Basal heart rate [2]: 120 ± 6%
- ED40 [3, 8]: 48 mg/kg
- ED40 [3, 9]: 93 mg/kg
- dP/dt, maximum recovery ([3]; rats, i.v.): 30%
- heart rate, maximum recovery dose ([3]; rats, i.v.): 50 mg/kg

SMILES: Cn1c(=O)c2[nH]cnc2n(C)c1=O [Theophylline]
- cardiac stimulation ([5]; in vivo): sometimes powerful cardiac stimulation
- perfusion of organs ([5]; in vivo): increased perfusion of most organs
- peripheral vascular resistance ([5]; in vivo): modest decreases in peripheral vascular resistance
- heart rate ([5]; therapeutic doses, effect short-lived in man): modest increases in heart rate
- vital capacity [6]: demonstrable increase in vital capacity
- ED50 [1]: 35.1 ± 5.3 mg/kg
- maximum effect (maximum percent reversal of histamine-induced bronchoconstriction) [1]: 72.8 ± 6.6%
- effectiveness in displacing ligands from both the A1 and A2 adenosine receptors [7]: about equally effective
- Basal blood pressure [2]: 66 ± 8%
- Basal heart rate [2]: 132 ± 4%
- ED40 ([3]; read-out: RD40, dP/dt): 18 mg/kg
- ED40 ([3]; read-out: RD40, heart rate): 94 mg/kg
- dP/dt, maximum recovery ([3]; rats, i.v.): 50%
- heart rate, maximum recovery dose ([3]; rats, i.v.): 50 mg/kg

SMILES: Cn1c(=O)c2c(ncn2C)n(C)c1=O [caffeine]
- effectiveness in displacing ligands from both the A1 and A2 adenosine receptors [7]: about equally effective
